Patent publication US20250059205A1, “Heterocyclic Compounds and Methods of Use” (AMGEN INC., priority 2021, published 2025)
Like-named read-outs stand apart in the source and are kept apart here.

Legend:
[1] = biological target: His-tagged KRAS G12D protein (Homo sapiens, UniProt P01116, G12D); experiment: KRAS G12D TR-FRET Assay; type: binding
[2] = test system: Phosphorylation of ERK1/2 in AsPC-1 cells; experiment: Phospho-ERK1/2 MSD Assay (AsPC-1 cells); type: cell-based; conditions: Homo sapiens, read-out: p-ERK (AsPC-1 cells) IC50
Summary of the method: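 Read-out: MSD electrochemiluminescent detection of phosphorylated ERK1/2 in whole-cell lysates, fitted to a 4-parameter logistic curve for IC50. Prior to lysis, AsPC-1 cells (25,000 per well) received a 2 h compound dose-response at 37 °C.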

[3] = test system: Phosphorylation of ERK1/2 in A-427 cells; experiment: Phospho-ERK1/2 MSD Assay (A-427 cells); type: cell-based; conditions: Homo sapiens, 2 h treatment, read-out: p-ERK (A427 cells) IC50
Summary of the method: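 ERK1/2 phosphorylation measured by Meso Scale whole-cell lysate assay after A-427 cells were exposed to a titration of compound for 2 h at 37 °C.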

[4] = biological target: GDP-bound KRAS protein (aa 1-169), containing both G12D and C118A amino acid substitutions (Homo sapiens, UniProt P01116, C118A/G12D); experiment: KRAS G12D Coupled Nucleotide Exchange Assay; type: biochemical; conditions: 2 h compound pre-incubation
Protocol: Following compound pre-incubation, purified SOS protein (aa 564-1049) and GTP (Roche 10106399001) were added to the assay wells and incubated for an additional 30 min. […] The assay plates were then read on a PerkinElmer EnVision Multilabel Reader, using AlphaScreen® technology, and data were analyzed using a 4-parameter logistic model to calculate IC50 values.

His-tagged KRAS G12D protein, sequence (P01116 1-188 isoform P01116-2 G12D): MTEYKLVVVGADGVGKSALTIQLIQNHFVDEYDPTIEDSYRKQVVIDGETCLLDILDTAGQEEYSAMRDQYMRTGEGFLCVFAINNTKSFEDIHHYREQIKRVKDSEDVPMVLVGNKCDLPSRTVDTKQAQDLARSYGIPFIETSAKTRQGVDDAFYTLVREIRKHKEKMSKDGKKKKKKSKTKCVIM
GDP-bound KRAS protein (aa 1-169), containing both G12D and C118A amino acid substitutions, sequence (P01116 1-169 isoform P01116-2 G12D/C118A): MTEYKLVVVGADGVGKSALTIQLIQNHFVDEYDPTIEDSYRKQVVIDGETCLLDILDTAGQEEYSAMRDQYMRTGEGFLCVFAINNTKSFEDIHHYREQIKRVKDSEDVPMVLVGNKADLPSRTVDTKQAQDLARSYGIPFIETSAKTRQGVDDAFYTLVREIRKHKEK

Structure (SMILES)	IC50 [1] [nM]	IC50 ([2]; ASPC1, 2 h, 2 hours treatment) [nM]	IC50 ([3]; A-427, 2 h) [nM]	Avg 2 h Coupled Exchange IC50 [4] [nM]	IC50 ([2]; ASPC1, 2 hours treatment) [nM]	IC50 [3] [nM]
CCc1c(F)ccc2cc(O)cc(-c3c(F)cc4c(N5C[C@H]6CC[C@@H](C5)N6)nc(OCC(C)(C)O)nc4c3F)c12 [Example 65, 4-(4-((1R,5S)-3,8-diazabicyclo[3.2. 1]octan-3-yl)-6,8-difluoro-2-(2-hydroxy-2-methylpropoxy)quinazolin-7-yl)-5-ethyl-6-fluoronaphthalen-2-ol]	7	547	699	8		
C#Cc1c(F)ccc2cc(O)cc(-c3cc4nc(OC[C@@]56CCCN5C[C@H](F)C6)nc(N5C[C@H]6CC[C@@H](C5)N6)c4cc3F)c12 [Example 181, 4-(4-((1R,5S)-3,8-diazabicyclo[3.2.1]octan-3-yl)-6-fluoro-2-(((2R,7aS)-2-fluorotetrahydro-1H-pyrrolizin-7a(5H)-yl)methoxy)quinazolin-7-yl)-5-ethynyl-6-fluoronaphthalen-2-ol]	1	18	3	1		
Oc1cc(-c2ccc3c(N4C[C@@H]5C[C@H]4CN5)nc(OC[C@@]45CCCN4C[C@H](F)C5)nc3c2F)c2ccccc2c1 [Example 50, 4-(4-((1S,4S)-2,5-diazabicyclo[2.2. 1]heptan-2-yl)-8-fluoro-2-(((2R,7aS)-2-fluorotetrahydro-1H-pyrrolizin-7a(5H)-yl)methoxy)quinazolin-7-yl)naphthalen-2-ol]	11	4470	1010	7		
CCc1c(F)ccc2cc(O)cc(-c3c(F)cc4c(N5C[C@H]6CC[C@@H](C5)N6)nc(OCC56CCCN5CC(F)(F)C6)nc4c3F)c12 (stereo partly drawn) [Example 128, 4-(4-((1R,5S)-3,8-diazabicyclo[3.2.1]octan-3-yl)-2-((2,2-difluorotetrahydro-1H-pyrrolizin-7a(5H)-yl)methoxy)-6,8-difluoroquinazolin-7-yl)-5-ethyl-6-fluoronaphthalen-2-ol]	3	243	308	4		
CCc1c(F)ccc2cc(O)cc(-c3ccc4c(N5CC6CCC(C5)N6)nc(OC[C@@]56CCCN5C[C@H](F)C6)nc4c3)c12 [Example 111]	2	51	28	1		
Oc1cc(-c2ccc3c(N4C[C@@H]5CC[C@H]4CN5)nc(OC[C@@]45CCCN4C[C@H](F)C5)nc3c2F)c2c(F)c(F)ccc2c1 [Example 140, 4-(4-((1S,4S)-2,5-diazabicyclo[2.2.2]octan-2-yl)-8-fluoro-2-(((2R,7aS)-2-fluorotetrahydro-1H-pyrrolizin-7a(5H)-yl)methoxy)quinazolin-7-yl)-5,6-difluoronaphthalen-2-ol]	2	70	11	1		
C#Cc1cccc2cc(O)cc(-c3ccc4c(N5C[C@H]6CC[C@@H](C5)N6)nc(OC[C@@]56CCCN5C[C@H](F)C6)nc4c3C)c12 [Example 191, 4-(4-((1R,5S)-3,8-diazabicyclo[3.2.1]octan-3-yl)-2-(((2R,7aS)-2-fluorotetrahydro-1H-pyrrolizin-7a(5H)-yl)methoxy)-8-methylquinazolin-7-yl)-5-ethynylnaphthalen-2-ol]	3	38	4	4		
Oc1cc(-c2c(F)cc3c(N4C[C@H]5COC[C@@H](C4)N5)nc(OC[C@@]45CCCN4C[C@H](F)C5)nc3c2F)c2ccccc2c1 [Example 15, 4-(4-((1R,5S)-3-oxa-7,9-diazabicyclo[3.3. 1]nonan-7-yl)-6,8-difluoro-2-(((2R,7aS)-2-fluorotetrahydro-1H-pyrrolizin-7a(5H)-yl)methoxy)quinazolin-7-yl)naphthalen-2-ol]	20	3220	1550	14		
CN1C[C@H](F)C[C@H]1COc1nc(N2C[C@H]3C[C@@H](C2)N3)c2ccc(-c3cc(O)cc4ccccc34)c(F)c2n1 [Example 7, 4-(4-((1R,5S)-3,6-diazabicyclo[3.1. 1]heptan-3-yl)-8-fluoro-2-(((2S,4R)-4-fluoro-1-methylpyrrolidin-2-yl)methoxy)quinazolin-7-yl)naphthalen-2-ol]	75	3300	3510	35		
Fc1c(-c2ccc(Cl)c3ccccc23)c(Cl)cc2c(N3C[C@H]4CC[C@@H](C3)N4)nc(OC[C@@]34CCCN3C[C@H](F)C4)nc12 [Example 79, 4-((1R,5S)-3,8-diazabicyclo[3.2. 1]octan-3-yl)-6-chloro-7-(4-chloronaphthalen-1-yl)-8-fluoro-2-(((2R,7aS)-2-fluorotetrahydro-1H-pyrrolizin-7a(5H)-yl)methoxy) quinazoline]	26	3430	> 10000	26		
Fc1cc2c(N3[C@@H]4CC[C@H]3CNC4)nc(OC[C@@]34CCCN3C[C@H](F)C4)nc2c(F)c1-c1cncc2cccc(Cl)c12 [Example 101, 4-((1R,5S)-3,8-Diazabicyclo[3.2.1]octan-8-yl)-7-(5-chloroisoquinolin-4-yl)-6,8-difluoro-2-(((2R,7aS)-2-fluorotetrahydro-1H-pyrrolizin-7a(5H)-yl)methoxy)quinazoline]	70			35	1710	2920
CCc1c(F)ccc2cc(O)cc(-c3cc4nc(OC[C@@]56CCCN5C[C@H](F)C6)nc(N5C[C@H]6CC[C@@H](C5)N6)c4cc3F)c12 [Example 83, 4-(4-((1R,5S)-3,8-diazabicyclo[3.2. 1]octan-3-yl)-6-fluoro-2-(((2R,7aS)-2-fluorotetrahydro-1H-pyrrolizin-7a(5H)-yl)methoxy)quinazolin-7-yl)-5-ethyl-6-fluoronaphthalen-2-ol]	3	77	28	2		
CCc1c(F)ccc2cc(O)cc(-c3ccc4c(N5C[C@H]6CC[C@@H](C5)N6)nc(OCC5(O)CCCC5)nc4c3F)c12 [Example 133, 4-(4-((1R,5S)-3,8-diazabicyclo[3.2.1]octan-3-yl)-8-fluoro-2-((1-hydroxycyclopentyl)methoxy)quinazolin-7-yl)-5-ethyl-6-fluoronaphthalen-2-ol]	7	2040	2430	6		
CCc1c(F)ccc2cc(O)cc(-c3ccc4c(N5C[C@H]6CC[C@@H](C5)N6)nc(OC[C@@]56CCCN5C[C@H](F)C6)nc4c3C)c12 [Example 95, 4-(4-((1R,5S)-3,8-diazabicyclo[3.2. 1]octan-3-yl)-2-(((2R,7aS)-2-fluorotetrahydro-1H-pyrrolizin-7a(5H)-yl)methoxy)-8-methylquinazolin-7-yl)-5-ethyl-6-fluoronaphthalen-2-ol]	10	230	199	10		
CCc1cccc2cc(O)cc(-c3ccc4c(N5C[C@@H]6CC[C@H]5CN6)nc(OC[C@@]56CCCN5C[C@H](F)C6)nc4c3F)c12 [Example 110, 4-(4-((1S,4S)-2,5-diazabicyclo[2.2.2]octan-2-yl)-8-fluoro-2-(((2R,7aS)-2-fluorotetrahydro-1H-pyrrolizin-7a(5H)-yl)methoxy)quinazolin-7-yl)-5-ethylnaphthalen-2-ol]	4	26	10	3		
CCc1c(F)ccc2cc(O)cc(-c3c(F)cc4c(N5C[C@H]6CC[C@@H](C5)N6)nc(OC[C@H]5CCC(=O)N5)nc4c3F)c12 [Example 127, (5R)-5-(((4-((1R,5S)-3,8-diazabicyclo[3.2.1]octan-3-yl)-7-(8-ethyl-7-fluoro-3-hydroxynaphthalen-1-yl)-6,8-difluoroquinazolin-2-yl)oxy)methyl) pyrrolidin-2-one]	12	7500	3300	3		
Cc1c(-c2cc(O)cc3ccc(F)c(F)c23)ccc2c(N3C[C@H]4CC[C@@H](C3)N4)nc(OC[C@@]34CCCN3C[C@H](F)C4)nc12 [Example 97, 4-(4-((1R,5S)-3,8-diazabicyclo[3.2. 1]octan-3-yl)-2-(((2R,7aS)-2-fluorotetrahydro-1H-pyrrolizin-7a(5H)-yl)methoxy)-8-methylquinazolin-7-yl)-5,6-difluoronaphthalen-2-ol]	6	178	69	6		
CN1C[C@H](F)C[C@H]1COc1nc(N2C[C@H]3C[C@@H](C2)N3)c2cc(F)c(-c3cc(O)cc4ccccc34)c(F)c2n1 [Example 19, 4-(4-((1R,5S)-3,6-diazabicyclo[3.1. 1]heptan-3-yl)-6,8-difluoro-2-(((2S,4R)-4-fluoro-1-methylpyrrolidin-2-yl)methoxy)quinazolin-7-yl)naphthalen-2-ol]	58	2090	1790	28		
